Measurements reported in US20180002319A1, “MACROCYCLIC PICOLINAMIDE COMPOUNDS WITH FUNGICIDAL ACTIVITY” (DOW AGROSCIENCES LLC, priority 2014, published 2018).
Like-named read-outs stand apart in the source and are kept apart here.

What was measured:
[1] = test system: Zymoseptoria tritici; assay: Leaf Blotch of Wheat (SEPTTR) fungicidal activity; format: in vivo; settings: wheat leaf blotch; for pest or weed control at 100 ppm: High Volume application; for pest or weed control at 121.5 g/ha: Low Volume application, 121.5 g/H
Method in brief: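 Wheat seedlings (Yuma, first leaf emerged) were sprayed to run-off with compound in acetone/water containing Triton X-100 and inoculated with Z. tritici spores before or after treatment. Percent disease control comes from 0–100% severity on treated versus untreated plants.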

[2] = test system: Puccinia triticina; assay: Wheat Brown Rust (PUCCRT) fungicidal activity; format: in vivo; settings: for pest or weed control at 100 ppm: High Volume application; for pest or weed control at 121.5 g/ha: Low Volume application, 121.5 g/H
Method in brief: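 Yuma wheat seedlings at first-leaf stage sprayed to run-off with acetone/water (Triton X-100) solutions, inoculated with P. triticina spores before or after treatment. Overnight dark dew at 22° C, then greenhouse at 24° C; percent disease control from severity versus untreated plants.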

[3] = 24 h, 1 day protectant, read-out: SEPTTR disease control, 1DP (1 Day Protectant)
[4] = 72 h, 3 day curative, read-out: SEPTTR disease control, 3DC (3 Day Curative)
[5] = 24 h, 1 day protectant, read-out: PUCCRT disease control, 1DP (1 Day Protectant)
[6] = 72 h, 3 day curative, read-out: PUCCRT disease control, 3DC (3 Day Curative)

melting point | SMILES | pest or weed control at 100 ppm [1, 3] | pest or weed control at 100 ppm [1, 4] | pest or weed control at 100 ppm [2, 5] | pest or weed control at 100 ppm [2, 6] | pest or weed control at 121.5 g/ha [1, 3] | pest or weed control at 121.5 g/ha [2, 5] | pest or weed control at 121.5 g/ha [2, 6] | pest or weed control at 121.5 g/ha [1, 4]
57 to 62 °C | COc1ccnc(C(=O)N[C@H]2COCCC[C@@H](CCC(C)C)[C@H](C)OC2=O)c1OC(C)=O [Compound 39] | > 80% | > 80% | > 80% | > 80% | – | – | – | –
– | COc1ccnc(C(=O)N[C@H]2CCCC[C@H](CC3CCCC3)[C@@H](OC(=O)C(C)C)[C@H](C)OC2=O)c1OCOC(C)=O [Compound 54] | – | – | – | – | > 80% | > 80% | < 80% | –
– | COc1ccnc(C(=O)N[C@H]2COCC[C@H](Cc3ccccc3)[C@@H](Oc3ccccc3)[C@H](C)OC2=O)c1O [Compound 126] | > 80% | < 80% | > 80% | > 80% | – | – | – | –
– | COc1ccnc(C(=O)N[C@H]2CCCC[C@H](CC3CCCC3)[C@@H](Oc3ccccc3)[C@H](C)OC2=O)c1O [Compound 121] | < 80% | > 80% | < 80% | – | – | – | – | –
– | C=CCO[C@@H]1[C@@H](CC2CCCC2)CCCC[C@H](NC(=O)c2nccc(OC)c2OCOC(C)=O)C(=O)O[C@H]1C [Compound 53] | – | – | – | – | – | < 80% | – | < 80%
– | COc1ccnc(C(=O)N[C@H]2CCCC[C@H](OC)[C@@H](Oc3ccccc3)[C@H](C)OC2=O)c1OCOC(C)=O [Compound 11] | > 80% | > 80% | > 80% | > 80% | > 80% | > 80% | > 80% | > 80%
– | CC[C@H]1CCOC[C@H](NC(=O)c2nccc(OC)c2O)C(=O)O[C@@H](C)[C@@H]1OC(=O)C1CC1 [Compound 136] | – | < 80% | > 80% | > 80% | – | – | – | –
– | COc1ccnc(C(=O)N[C@H]2COCC[C@H](Cc3ccc(F)cc3)[C@@H](Oc3ccccc3)[C@H](C)OC2=O)c1O [Compound 132] | > 80% | – | > 80% | > 80% | – | – | – | –
– | COc1ccnc(C(=O)N[C@H]2CCCC[C@H](CC3CCCC3)[C@@H](Oc3ccccc3)[C@H](C)OC2=O)c1OCOC(C)=O [Compound 50] | – | – | – | – | > 80% | > 80% | > 80% | < 80%
197 to 198 °C | COc1ccnc(C(=O)N[C@H]2CCOC[C@H](Cc3ccccc3)[C@@H](OCC(C)C)[C@H](C)OC2=O)c1O [Compound 95] | > 80% | < 80% | > 80% | < 80% | – | – | – | –
– | COc1ccnc(C(=O)N[C@H]2CCOC[C@H](Oc3ccccc3)[C@@H](OCC(C)C)[C@H](C)OC2=O)c1OCOC(C)=O [Compound 46] | – | – | – | – | > 80% | > 80% | < 80% | < 80%
